Test results as given in patent US20210130406A1, “PEPTIDE, COMPOSITION, AND METHOD FOR TREATING, PREVENTING, OR AMELIORATING MOOD DISORDER” (KYOTO UNIVERSITY, priority 2018, published 2021).

Key:
ddy mouse [1] = experiment: Tail suspension test (motivation-improving effect), oral peptide; assay type: in vivo; conditions: 30 minutes after administration, vs saline control
Description: (§1) Each prepared peptide was administered to a mouse (ddy mouse (5-week-old male, body weight 24 g-28 g)) in each of the following tests, and then the motivation-improving effect was evaluated by a tail suspension test.
(§2) Each mouse was suspended by the tail and hung 30 cm above the floor, 30 minutes after peptide administration. Subsequently, over a period of 6 minutes from the start of the test (0 minute), the time (immobility time) during which the mouse was in an immobility state after initiating escape behavior was measured. The immobility state is known as a “despair state”, and it can be evaluated that the shorter the immobility time, the better the despair state and the greater the motivation. Therefore, substances that provide a motivation-improving effect in this test can be effective in treating, preventing, or ameliorating mood disorders.
(§3) The amino acid sequence represented by SEQ ID NO: 2 was dissolved in physiological saline and orally administered to each mouse in an amount of 0.03, 0.1, or 0.3 mg/kg per body weight (n=5 to 6). As a control, mice were prepared by orally administering physiological saline alone (n=6). Each mouse was subjected to a tail suspension test, and the motivation-improving effect resulting from the peptide of the present invention was evaluated.
as §3, with “Each of the” for “The”, “sequences” for “sequence”, “NOS: 1 to 3” for “NO: 2”, “mice” for “each mouse”, “0.1” for “0.03, 0.1, or 0.3”, “alone to the mice” for “alone”

ddy mouse [2] = experiment: Tail suspension test, peptide combined with receptor antagonists; assay type: in vivo; conditions: Test 3, FIG. 3
Description: as §1, §2
Mice were prepared by orally administering the amino acid sequence represented by SEQ ID NO: 2 in an amount of 0.3 mg/kg and various receptor antagonists in combination thereto (n=5 to 6). Each mouse was subjected to a tail suspension test, and the motivation-improving effect resulting from the peptide of the present invention was evaluated.
(1) SCH23390: dopamine D1 receptor antagonist, and the amount used: 30 μg/kg (2) WAY100135: serotonin 5-HT1A receptor antagonist, and the amount used: 10 mg/kg (3) Bicuculline: GABA-A receptor antagonist, and the amount used: 30 mg/kg

[3] = Test 2, FIG. 2, oral 0.1 mg/kg in physiological saline

Substance | immobility time (ddy mouse [1]; [3]) | immobility time (ddy mouse [1]; Test 1, FIG. 1, oral 0.03, 0.1 or 0.3 mg/kg in physiological saline, 6 minutes test, tendency depended on concentration) | immobility time (ddy mouse [2]; oral 0.3 mg/kg combined with Bicuculline (GABA-A receptor antagonist) 30 mg/kg) | immobility time (ddy mouse [2]; oral 0.3 mg/kg combined with SCH23390 (dopamine D1 receptor antagonist) 30 μg/kg) | immobility time (ddy mouse [2]; oral 0.3 mg/kg combined with WAY100135 (serotonin 5-HT1A receptor antagonist) 10 mg/kg)
QQFLPEG [SEQ ID NO: 3] | not observed to have any decrease in immobility time |  |  |  | 
QQFLPEGQSQSQK [SEQ ID NO: 2] | shorter immobility time than the control | shorter than that of the control | relatively decreased the immobility time | significantly increased immobility time | relatively decreased the immobility time
QSQSQK [SEQ ID NO: 1] | shorter immobility time than the control |  |  |  | 
